From ChEMBL document CHEMBL3877316, “Synthesis of pharmacologically important naphthoquinones and anticancer activity of 2-benzyllawsone through DNA topoisomerase-II inhibition” (Bioorg Med Chem, 2017)
pIC50: −log10 of the molar value.

Assays:
[1] = Antiproliferative activity against HEK293 cells after 48 hrs by SRB assay; type: cell-based; settings: Homo sapiens, HEK293, 48 h
[2] = system: FaDu; assay: Inhibition of topoisomerase-2 in human FADU cells at 2 times antiproliferative IC50 after 24 hrs by ELISA relative to control; type: cell-based
[3] = Antiproliferative activity against human DLD1 cells after 48 hrs by SRB assay; type: functional, cell-based; settings: DLD-1, 48 h
[4] = Antiproliferative activity against human MCF7 cells after 48 hrs by SRB assay; type: functional, cell-based; settings: MCF7, 48 h
[5] = Antiproliferative activity against human DU145 cells after 48 hrs by SRB assay; type: functional, cell-based; settings: DU-145, 48 h
[6] = Antiproliferative activity against human A549 cells after 48 hrs by SRB assay; type: functional, cell-based; settings: A549, 48 h
[7] = Antiproliferative activity against human FADU cells after 48 hrs by SRB assay; type: functional, cell-based

SMILES: CC1(C)CCC2=C(O1)c1ccccc1C(=O)C2=O [LAPACHONE]
- pIC50 [1]: 4.60
- inhibition [2]: 53.9%

SMILES: CCOC(=O)COC1=CC(=O)c2ccccc2C1=O
- pIC50 [1]: < 3.82
- pIC50 [3]: < 4.52
- pIC50 [4]: < 4.52
- pIC50 [5]: < 4.52
- inhibition [2]: 16.8%
- pIC50 [6]: 4.81
- pIC50 [7]: 4.70

SMILES: COc1cc(COC2=CC(=O)c3ccccc3C2=O)cc(OC)c1OC
- pIC50 [1]: < 3.82
- pIC50 [3]: < 4.52
- pIC50 [4]: < 4.52
- pIC50 [5]: 4.60
- inhibition [2]: 14.7%
- pIC50 [6]: 4.72
- pIC50 [7]: 4.78

SMILES: CCOC(=O)COC1=C(CC(=O)OCC)C(=O)c2ccccc2C1=O
- pIC50 [1]: < 3.82
- pIC50 [3]: < 4.52
- pIC50 [4]: < 4.52
- pIC50 [5]: < 4.52
- inhibition [2]: 21.4%
- pIC50 [6]: 4.68
- pIC50 [7]: 4.66

SMILES: COc1cc([C@@H]2c3cc4c(cc3[C@@H](O[C@@H]3O[C@@H]5CO[C@@H](C)O[C@H]5[C@H](O)[C@H]3O)[C@H]3COC(=O)[C@H]23)OCO4)cc(OC)c1O [ETOPOSIDE]
- pIC50 [1]: 5.12
- pIC50 [3]: 5.09
- pIC50 [4]: < 4.52
- pIC50 [5]: 4.97
- inhibition [2]: 51.7%
- pIC50 [6]: < 4.52
- pIC50 [7]: 4.80
